AC50 data for 7 compounds are collected here from ChEMBL document CHEMBL5291721, “A preclinical secondary pharmacology resource illuminates target-adverse drug reaction associations of marketed drugs” (Nat Commun, 2023).

The target of test [1] is Vasopressin V1a receptor (Homo sapiens, UniProt P37288).
Test [2] deals with Adenosine receptor A2a (Homo sapiens, UniProt P29274).
For test [3], the target named is T1, Muscarinic acetylcholine receptor M2 (Homo sapiens, UniProt P08172).
T1 sequence (P08172 whole entry): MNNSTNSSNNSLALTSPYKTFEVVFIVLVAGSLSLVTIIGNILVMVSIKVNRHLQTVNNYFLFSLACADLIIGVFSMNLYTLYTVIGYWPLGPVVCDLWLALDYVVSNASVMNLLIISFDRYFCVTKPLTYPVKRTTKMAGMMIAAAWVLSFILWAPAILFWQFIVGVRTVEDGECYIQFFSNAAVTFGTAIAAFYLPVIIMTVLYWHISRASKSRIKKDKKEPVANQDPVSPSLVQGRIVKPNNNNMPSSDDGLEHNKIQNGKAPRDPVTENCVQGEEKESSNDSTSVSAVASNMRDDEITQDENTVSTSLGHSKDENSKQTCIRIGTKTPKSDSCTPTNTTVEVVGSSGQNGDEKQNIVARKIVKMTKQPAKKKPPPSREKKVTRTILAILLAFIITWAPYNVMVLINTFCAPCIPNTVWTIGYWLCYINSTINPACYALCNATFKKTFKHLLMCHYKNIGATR
It is filed as functional, cell-based.

Test [4] addresses 5-hydroxytryptamine receptor 2B (Homo sapiens, UniProt P41595). It is filed as functional, cell-based.
The target of test [5] is T2, Neuropeptide Y receptor type 1 (Homo sapiens, UniProt P25929).
T2 sequence (P25929 whole entry): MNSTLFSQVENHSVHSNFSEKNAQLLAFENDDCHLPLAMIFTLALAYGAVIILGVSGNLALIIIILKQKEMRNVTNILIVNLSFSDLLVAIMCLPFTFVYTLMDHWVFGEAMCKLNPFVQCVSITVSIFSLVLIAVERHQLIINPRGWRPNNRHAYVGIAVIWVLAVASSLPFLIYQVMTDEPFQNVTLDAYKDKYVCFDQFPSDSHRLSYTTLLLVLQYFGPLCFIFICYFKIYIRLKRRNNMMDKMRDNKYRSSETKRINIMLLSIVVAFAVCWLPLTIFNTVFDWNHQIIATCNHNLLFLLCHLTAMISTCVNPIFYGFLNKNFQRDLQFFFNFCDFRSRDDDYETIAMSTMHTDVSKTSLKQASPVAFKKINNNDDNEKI

Test [6] deals with D(1A) dopamine receptor (Homo sapiens, UniProt P21728). It is filed as functional, cell-based.
Sequence of D(1A) dopamine receptor (P21728 whole entry): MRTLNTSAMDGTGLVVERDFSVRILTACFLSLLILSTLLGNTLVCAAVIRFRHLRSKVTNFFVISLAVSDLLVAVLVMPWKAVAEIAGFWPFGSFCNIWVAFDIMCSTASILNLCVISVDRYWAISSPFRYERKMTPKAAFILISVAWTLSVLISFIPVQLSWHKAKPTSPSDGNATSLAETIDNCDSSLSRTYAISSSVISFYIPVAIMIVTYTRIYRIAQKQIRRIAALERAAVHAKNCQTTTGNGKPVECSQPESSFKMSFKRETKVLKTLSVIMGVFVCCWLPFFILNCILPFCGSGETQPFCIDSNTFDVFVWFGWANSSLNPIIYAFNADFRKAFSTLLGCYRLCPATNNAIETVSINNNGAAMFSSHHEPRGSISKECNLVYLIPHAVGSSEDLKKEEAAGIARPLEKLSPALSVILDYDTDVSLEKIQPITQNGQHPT
The target of test [7] is Growth hormone secretagogue receptor type 1 (Homo sapiens, UniProt Q92847).
Sequence of Growth hormone secretagogue receptor type 1 (Q92847 whole entry): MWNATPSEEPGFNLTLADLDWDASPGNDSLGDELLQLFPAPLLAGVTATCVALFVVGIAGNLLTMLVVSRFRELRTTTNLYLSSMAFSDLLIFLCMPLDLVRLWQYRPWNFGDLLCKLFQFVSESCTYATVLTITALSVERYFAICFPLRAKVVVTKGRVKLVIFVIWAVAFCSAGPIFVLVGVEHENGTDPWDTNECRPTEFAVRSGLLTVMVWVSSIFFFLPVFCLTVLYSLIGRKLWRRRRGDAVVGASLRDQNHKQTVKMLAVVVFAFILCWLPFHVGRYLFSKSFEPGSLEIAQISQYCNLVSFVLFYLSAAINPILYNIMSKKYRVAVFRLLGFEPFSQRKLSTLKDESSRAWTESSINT
Test [8] addresses cGMP-inhibited 3',5'-cyclic phosphodiesterase 3A (Homo sapiens, UniProt Q14432). It is filed as functional.
Test [9] addresses T3, 5-hydroxytryptamine receptor 1A (Homo sapiens, UniProt P08908).
T3 sequence (P08908 whole entry): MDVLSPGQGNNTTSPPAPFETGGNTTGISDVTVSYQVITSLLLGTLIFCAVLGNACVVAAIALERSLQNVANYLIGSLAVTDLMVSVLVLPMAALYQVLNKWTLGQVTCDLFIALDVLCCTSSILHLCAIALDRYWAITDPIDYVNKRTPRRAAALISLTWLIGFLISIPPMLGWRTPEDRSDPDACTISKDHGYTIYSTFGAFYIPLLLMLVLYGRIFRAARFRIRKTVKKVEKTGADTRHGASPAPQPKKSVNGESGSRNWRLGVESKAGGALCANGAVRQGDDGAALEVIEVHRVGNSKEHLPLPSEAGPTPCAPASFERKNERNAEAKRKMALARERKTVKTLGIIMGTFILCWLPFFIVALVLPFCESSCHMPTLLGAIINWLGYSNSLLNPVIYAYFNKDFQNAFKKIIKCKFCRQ
It is filed as functional, cell-based.

For test [10], the target named is T4, Alpha-2A adrenergic receptor (Homo sapiens, UniProt P08913).
T4 sequence (P08913 whole entry): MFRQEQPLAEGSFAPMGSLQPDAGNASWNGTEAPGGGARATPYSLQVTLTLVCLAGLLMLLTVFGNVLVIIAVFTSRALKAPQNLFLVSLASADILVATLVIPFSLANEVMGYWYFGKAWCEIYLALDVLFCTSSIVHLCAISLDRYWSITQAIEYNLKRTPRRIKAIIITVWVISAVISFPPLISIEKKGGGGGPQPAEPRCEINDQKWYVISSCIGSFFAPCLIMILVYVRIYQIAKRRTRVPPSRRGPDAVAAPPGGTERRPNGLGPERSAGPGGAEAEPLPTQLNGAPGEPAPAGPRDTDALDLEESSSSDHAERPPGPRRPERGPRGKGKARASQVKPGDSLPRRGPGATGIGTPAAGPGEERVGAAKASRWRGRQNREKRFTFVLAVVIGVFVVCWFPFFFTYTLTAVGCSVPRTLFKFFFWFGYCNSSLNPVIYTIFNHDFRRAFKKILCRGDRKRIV
It is filed as functional, cell-based.

Test [11] has as its target Melanocortin receptor 4 (Homo sapiens, UniProt P32245).
Test [12] addresses Melanocortin receptor 3 (Homo sapiens, UniProt P41968).
Test [13] concerns the target T5, Amine oxidase [flavin-containing] A (Homo sapiens, UniProt P21397).
T5 sequence (P21397 whole entry): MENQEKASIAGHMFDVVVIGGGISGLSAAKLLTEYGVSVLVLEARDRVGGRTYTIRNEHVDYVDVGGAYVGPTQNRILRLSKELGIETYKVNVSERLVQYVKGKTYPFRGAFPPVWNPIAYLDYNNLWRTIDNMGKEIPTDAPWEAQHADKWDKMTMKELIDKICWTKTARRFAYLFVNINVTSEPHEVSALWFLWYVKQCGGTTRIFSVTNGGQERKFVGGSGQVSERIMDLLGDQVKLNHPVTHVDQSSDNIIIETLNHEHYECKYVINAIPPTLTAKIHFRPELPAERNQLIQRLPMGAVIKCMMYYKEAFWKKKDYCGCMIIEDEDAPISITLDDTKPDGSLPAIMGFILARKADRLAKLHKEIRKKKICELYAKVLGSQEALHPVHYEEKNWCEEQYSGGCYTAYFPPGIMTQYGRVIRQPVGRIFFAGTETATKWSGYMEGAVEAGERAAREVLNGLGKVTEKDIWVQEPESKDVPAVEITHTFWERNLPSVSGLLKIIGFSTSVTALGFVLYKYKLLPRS
It is filed as functional.
Further: assay procedure not described here.

Sequence of cGMP-inhibited 3',5'-cyclic phosphodiesterase 3A (Q14432 whole entry): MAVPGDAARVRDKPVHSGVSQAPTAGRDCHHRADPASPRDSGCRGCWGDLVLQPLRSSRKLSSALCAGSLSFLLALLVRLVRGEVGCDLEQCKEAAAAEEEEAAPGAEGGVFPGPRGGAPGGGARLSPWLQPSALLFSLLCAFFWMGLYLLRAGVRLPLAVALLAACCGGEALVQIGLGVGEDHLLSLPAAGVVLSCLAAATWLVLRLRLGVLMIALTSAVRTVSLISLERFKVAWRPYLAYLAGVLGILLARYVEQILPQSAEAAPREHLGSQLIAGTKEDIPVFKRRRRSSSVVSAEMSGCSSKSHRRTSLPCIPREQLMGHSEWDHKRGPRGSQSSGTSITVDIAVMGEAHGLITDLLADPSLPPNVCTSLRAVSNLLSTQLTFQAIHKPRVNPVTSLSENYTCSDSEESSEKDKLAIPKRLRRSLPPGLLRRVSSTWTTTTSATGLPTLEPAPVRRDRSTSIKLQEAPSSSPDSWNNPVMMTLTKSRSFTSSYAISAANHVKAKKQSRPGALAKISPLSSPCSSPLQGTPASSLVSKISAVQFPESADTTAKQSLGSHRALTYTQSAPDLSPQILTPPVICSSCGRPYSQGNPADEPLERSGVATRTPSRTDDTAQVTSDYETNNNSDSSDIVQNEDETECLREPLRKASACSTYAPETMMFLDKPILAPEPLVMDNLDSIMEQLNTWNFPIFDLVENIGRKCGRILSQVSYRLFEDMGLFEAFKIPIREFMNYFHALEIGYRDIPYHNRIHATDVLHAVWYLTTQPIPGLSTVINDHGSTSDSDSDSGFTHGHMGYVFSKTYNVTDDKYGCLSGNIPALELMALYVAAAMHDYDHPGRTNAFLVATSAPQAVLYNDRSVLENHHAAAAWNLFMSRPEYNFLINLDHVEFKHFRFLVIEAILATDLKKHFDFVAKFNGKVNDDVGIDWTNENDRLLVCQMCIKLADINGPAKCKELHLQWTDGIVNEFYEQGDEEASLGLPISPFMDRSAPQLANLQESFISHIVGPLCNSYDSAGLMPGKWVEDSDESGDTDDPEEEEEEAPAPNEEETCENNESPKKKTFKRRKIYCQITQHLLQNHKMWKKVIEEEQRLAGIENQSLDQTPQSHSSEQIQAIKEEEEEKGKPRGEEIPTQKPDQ
Sequence of Adenosine receptor A2a (P29274 whole entry): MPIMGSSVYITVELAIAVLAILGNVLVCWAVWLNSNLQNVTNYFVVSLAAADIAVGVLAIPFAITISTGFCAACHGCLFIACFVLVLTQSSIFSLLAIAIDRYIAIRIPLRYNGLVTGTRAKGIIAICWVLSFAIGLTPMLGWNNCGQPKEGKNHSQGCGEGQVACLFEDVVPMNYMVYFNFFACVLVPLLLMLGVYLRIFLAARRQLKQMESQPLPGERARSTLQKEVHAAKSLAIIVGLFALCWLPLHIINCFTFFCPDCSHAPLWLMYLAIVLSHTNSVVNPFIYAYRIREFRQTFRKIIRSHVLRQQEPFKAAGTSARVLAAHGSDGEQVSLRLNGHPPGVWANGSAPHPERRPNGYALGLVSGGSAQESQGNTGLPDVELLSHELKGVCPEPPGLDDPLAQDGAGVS
Sequence of Melanocortin receptor 3 (P41968 whole entry): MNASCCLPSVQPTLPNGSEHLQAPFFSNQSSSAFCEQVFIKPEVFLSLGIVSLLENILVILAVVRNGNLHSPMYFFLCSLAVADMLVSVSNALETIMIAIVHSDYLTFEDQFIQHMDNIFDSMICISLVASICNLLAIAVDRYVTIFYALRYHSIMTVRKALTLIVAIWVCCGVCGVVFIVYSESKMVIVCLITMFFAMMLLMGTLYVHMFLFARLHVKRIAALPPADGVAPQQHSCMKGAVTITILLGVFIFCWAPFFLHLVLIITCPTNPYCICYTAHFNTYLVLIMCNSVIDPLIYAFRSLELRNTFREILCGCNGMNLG
Sequence of Vasopressin V1a receptor (P37288 whole entry): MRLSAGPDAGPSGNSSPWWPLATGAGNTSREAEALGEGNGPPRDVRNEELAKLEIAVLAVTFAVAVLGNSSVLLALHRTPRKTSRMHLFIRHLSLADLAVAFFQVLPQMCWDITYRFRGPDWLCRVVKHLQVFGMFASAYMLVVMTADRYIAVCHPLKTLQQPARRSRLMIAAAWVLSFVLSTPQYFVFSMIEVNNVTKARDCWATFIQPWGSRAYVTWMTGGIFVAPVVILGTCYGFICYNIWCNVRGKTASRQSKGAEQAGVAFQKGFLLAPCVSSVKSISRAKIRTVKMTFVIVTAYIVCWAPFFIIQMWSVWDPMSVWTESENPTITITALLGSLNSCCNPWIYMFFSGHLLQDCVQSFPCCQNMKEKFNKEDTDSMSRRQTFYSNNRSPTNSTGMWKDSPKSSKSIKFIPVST
Sequence of 5-hydroxytryptamine receptor 2B (P41595 whole entry): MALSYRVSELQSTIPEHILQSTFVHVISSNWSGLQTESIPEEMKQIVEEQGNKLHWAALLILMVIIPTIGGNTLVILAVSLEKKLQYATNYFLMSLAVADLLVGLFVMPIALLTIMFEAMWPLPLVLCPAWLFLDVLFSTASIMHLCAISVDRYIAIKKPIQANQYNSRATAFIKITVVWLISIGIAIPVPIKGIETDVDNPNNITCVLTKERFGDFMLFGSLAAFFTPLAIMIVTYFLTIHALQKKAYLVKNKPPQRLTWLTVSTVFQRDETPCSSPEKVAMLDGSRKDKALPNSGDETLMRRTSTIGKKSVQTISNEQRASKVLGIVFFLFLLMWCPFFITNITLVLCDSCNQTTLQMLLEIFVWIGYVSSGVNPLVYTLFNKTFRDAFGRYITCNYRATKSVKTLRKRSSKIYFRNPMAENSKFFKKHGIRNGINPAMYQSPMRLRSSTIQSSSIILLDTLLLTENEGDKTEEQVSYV
Sequence of Melanocortin receptor 4 (P32245 whole entry): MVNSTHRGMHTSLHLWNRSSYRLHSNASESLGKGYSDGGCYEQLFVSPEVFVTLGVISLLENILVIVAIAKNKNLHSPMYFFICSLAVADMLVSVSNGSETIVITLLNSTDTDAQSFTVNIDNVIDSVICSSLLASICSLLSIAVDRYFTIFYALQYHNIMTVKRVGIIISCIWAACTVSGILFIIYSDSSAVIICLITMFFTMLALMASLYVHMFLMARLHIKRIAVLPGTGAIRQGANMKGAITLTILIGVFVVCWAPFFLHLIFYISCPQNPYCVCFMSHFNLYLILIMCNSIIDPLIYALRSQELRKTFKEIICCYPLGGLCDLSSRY

Turning to `CN(C)CCOC(=O)C(c1ccccc1)C1(O)CCCC1` (stereo unspecified) [CYCLOPENTOLATE], the half-maximal activity concentration (AC50) in [1], in test [2], in test [3], in [4], in test [5] and in test [6] was > 10 µM in each case. In addition, the AC50 (commonly the concentration at which the activity in the assay is half-maximal) in [7] was > 10 µM; in test [8], > 30 µM; in [9], > 10 µM; in test [10], > 10 µM; in [11], > 10 µM; in test [12] it was > 10 µM. In addition, in test [13], the AC50 is > 30 µM.
Turning to `CN1C(=O)CN=C(c2ccccc2F)c2cc([N+](=O)[O-])ccc21` [FLUNITRAZEPAM], the AC50 was > 10 µM in [1]; > 30 µM in test [2]; > 10 µM in [3]; > 10 µM in [4]; > 30 µM in [5]; > 10 µM in test [6]. For the same compound, the concentration at half-maximal activity (AC50) in test [7] is 29.1 µM; in test [8] it was > 30 µM; in [9], > 10 µM; in test [10], > 10 µM; in test [11], > 30 µM; in test [12], 18.6 µM. Further, the AC50 in test [13] was > 10 µM.
In the case of `Cc1ccc(-c2ncc(Cl)cc2-c2ccc(S(C)(=O)=O)cc2)cn1` [ETORICOXIB], the half-maximal activity concentration (AC50) in [1] is > 30 µM; in test [2], > 10 µM; in [3] it was > 10 µM; in test [4] it was > 10 µM; in [5], > 10 µM; in test [6], > 10 µM. Besides, the concentration at half-maximal activity (AC50) in test [7], in test [8], in test [9], in [10], in test [11] and in test [12] was > 10 µM throughout. Moreover, in test [13], the AC50 was > 10 µM.
Regarding `CC(C(=O)O)c1ccc(C(=O)c2ccccc2)s1` (stereo unspecified) [TIAPROFENIC ACID], the AC50 in test [1], in test [2], in [3], in [4], in test [5] and in test [6] was > 10 µM each time. The AC50 is > 10 µM in test [7]; > 30 µM in test [8]; > 10 µM in test [9]; > 10 µM in [10]; > 10 µM in [11]; > 10 µM in [12]. The same compound had an AC50 in test [13] of 18 µM.
For the compound `Oc1cc(O)c2c(c1)O[C@H](c1ccc(O)c(O)c1)[C@@H](O)C2` [CIANIDANOL], the AC50 was > 30 µM in [1]; > 30 µM in test [2]; > 10 µM in test [3]; > 10 µM in [4]; > 30 µM in [5]; > 10 µM in [6]. Besides, the AC50 in test [7] was > 30 µM; in test [8] it was > 30 µM; in [9] it was > 10 µM; in [10], > 10 µM; in test [11], > 30 µM; in test [12] it was > 30 µM. For the same compound, the AC50 in [13] is > 10 µM.
`Cc1nnc2n1-c1ccc(Cl)cc1C(c1ccccc1)=NC2` [ALPRAZOLAM]: the AC50 was > 10 µM in test [1]; > 30 µM in test [2]; > 10 µM in test [3]; > 10 µM in test [4]; > 30 µM in [5]; > 10 µM in [6]. Also, the AC50 in test [7] is > 30 µM; in test [8], > 30 µM; in test [9] it was > 10 µM; in [10] it was > 10 µM; in [11], > 30 µM; in test [12], > 30 µM. Also, in test [13], the half-maximal activity concentration (AC50) is > 10 µM.
With `CC1=C(CC(=O)O)c2cc(F)ccc2/C1=C\c1ccc([S+](C)[O-])cc1` (stereo unspecified), the AC50 in [1] is > 30 µM; in test [2] it was > 30 µM; in [3], > 10 µM; in test [4] it was > 10 µM; in [5], > 30 µM; in test [6] it was > 10 µM. Besides, the AC50 in test [7] is > 30 µM; in test [8], > 30 µM; in test [9], > 10 µM; in test [10], > 10 µM; in test [11], > 30 µM; in [12] it was > 30 µM. Moreover, the AC50 in test [13] is > 10 µM.
